Experimental data: patent publication US8518952B2, “6 substituted 2-heterocyclylamino pyrazine compounds as CHK-1 inhibitors” (Pfizer Inc., priority 2008, dated 2013)
Like-named read-outs stand apart in the source and are kept apart here.

Key:
CHK1 (kinase domain) = biological target: T1, CHK1 (kinase domain) (Homo sapiens, UniProt O14757); experiment: CHK1 Ki determination, spectrophotometric coupled (pyruvate kinase/lactate dehydrogenase) assay; type: biochemical; details: CHK-1 kinase domain; 150 uM ATP, 125 uM Syntide 2
T1 construct: a solution containing 1 nM of CHK1 (kinase domain)
T1 sequence (O14757 9-265 limits assumed): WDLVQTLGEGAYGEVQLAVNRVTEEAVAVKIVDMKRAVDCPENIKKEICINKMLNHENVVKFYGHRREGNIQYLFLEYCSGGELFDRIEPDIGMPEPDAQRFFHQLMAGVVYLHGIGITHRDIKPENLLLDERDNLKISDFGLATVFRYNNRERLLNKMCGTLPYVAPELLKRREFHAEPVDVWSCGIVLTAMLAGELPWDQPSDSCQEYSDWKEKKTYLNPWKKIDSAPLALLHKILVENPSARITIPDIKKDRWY
Experimental: After 15 min pre-incubation, the enzymatic reaction was initiated by the simultaneous addition of Syntide 2 peptide (125 uM, final concentration) and ATP (150 uM, final concentration). The kinase-catalyzed production of ADP from ATP that accompanied phosphoryl transfer to the substrate Syntide 2 was coupled to the oxidation of NADH through the activities of pyruvate kinase and lactate dehydrogenase. NADH conversion to NAD^+ was monitored by the decrease in absorbance at 340 nm (ε=6.22 cm^−1 mM^−1) using a microplate reader from Molecular Devices Spectormax Plus (Sunnyvale, Calif.) or BMG LABTECH Inc (Offenburg, Germany).
The inhibition of CHK1 was analyzed by fitting the data to the following equation to determine Kiapp:
[formula] where [E]o and [I]o are the active enzyme and inhibitor concentration, respectively; Ki is the inhibition binding constant and Km the Michaelis-Menten constant for ATP; Vi and Vo are the rates of substrate oxidation in the presence of and in the absence of inhibitor, respectively. EC50 Determination (Cellular Assay)
(§1) Under the “Ki” column, data entries in the format of “%” are percent inhibition data where no Ki data is available. Data entry under the “EC50” column with an * are data obtained using Mia Paca-2 cells rather than HeLa cells. Data is not available where noted as n/a.

HeLa cells = experiment: Histone H3 (Ser10) phosphorylation ELISA, abrogation of camptothecin-induced G2 arrest (CHK-1 cellular assay); type: cell-based; details: HeLa cells, camptothecin 8 hrs, then compound with nocodozole 16 hours, read-out: EC50
Experimental: The Histone H3 phosphorylation ELISA assay detects cells entering mitosis and represents the primary in vitro cell-based assay used to measure the cellular potency of compounds in abrogating the G2 check point induced by DNA damage in HeLa cells or MiaPaCa cells. The candidate substances were assayed for potency in their ability to inhibit camptothecin-induced G2 arrest, as measured by an increase in Histone H3 phosphorylation on Ser10, a marker of entry into mitosis.
Tissue culture plates were seeded with HeLa cells or MiaPaCa Cells and allowed to attach overnight. The cells were then treated with camptothecin to induce DNA damage for 8 hrs. Candidate substances or diluent were then added in the presence of nocodozole for 16 hours. […] The fresh whole cell lysates were then thawed and added to the ELISA plate with shaking for 3 hours. Between all subsequent steps plates were washed 4 times with PBST. Biotinylated phospho Histone H3 (ser10) detection antibody was added for 1 hour, followed by addition of horseradish peroxidase-linked streptavidin secondary antibody for 1 hour. Color development of the antibody was performed with addition of TMB substrate and incubation for 2 minutes on a plate shaker. […] EC50 values were calculated by sigmoid curve fitting using a four-parameter analysis.
as §1

| SMILES | Ki (CHK1 (kinase domain)) | EC50 (HeLa cells; Homo sapiens, HeLa) | EC50 (HeLa cells) |
| --- | --- | --- | --- |
| Clc1ccn2c(-c3cncc(N[C@@H]4CCCNC4)n3)cnc2c1 [Example 44, 6-(7-Chloroimidazo[1,2-a]pyridin-3-yl)-N-[(3R)-piperidin-3-yl]pyrazin-2-amine] | 2.51 nM | 21 nM |  |
| c1ccn2c(-c3cncc(N[C@H]4CCNC4)n3)cnc2c1 [Example 48, 6-Imidazo[1,2-a]pyridin-3-yl-N-[(3S)-pyrrolidin-3-yl]pyrazin-2-amine] | 165 nM | 600 nM |  |
| CC1(Nc2cncc(-c3cnc4ccccn34)n2)CCCNC1 (centres unmarked) [Example 54, 6-Imidazo[1,2-a]pyridin-3-yl-N-(3-methylpiperidin-3-yl)pyrazin-2-amine] | 118 nM | 1110 nM |  |
| CCc1ccn2c(-c3cncc(N[C@@H]4CCNC4)n3)cnc2c1 [Example 56, 6-(7-Ethylimidazo[1,2-a]pyridin-3-yl)-N-[(3R)-pyrrolidin-3-yl]pyrazin-2-amine] | 11.2 nM | 126 nM |  |
| CC(C)c1ccc2ncc(-c3cncc(N[C@@H]4CCNC4)n3)n2c1 [Example 57, 6-(6-Isopropylimidazo[1,2-a]pyridin-3-yl)-N-[(3R)-pyrrolidin-3-yl]pyrazin-2-amine] | 6.09 nM | 373 nM |  |
| Cc1ncc(-c2cncc(N[C@@H]3CCCNC3)n2)n1C [Example 64, 6-(1,2-dimethyl-1H-imidazol-5-yl)-N-[(3R)-piperidin-3-yl]pyrazin-2-amine] | 1110 nM | ≥ 10000 nM |  |
| F[C@H]1CNC[C@@H]1Nc1cncc(-c2cnc3cc(Cl)ccn23)n1 [Example 65, 6-(7-chloroimidazo[1,2-a]pyridin-3-yl)-N-[(3S,4S)-4-fluoropyrrolidin-3-yl]pyrazin-2-amine] | 33 nM | 501 nM |  |
| F[C@H]1CNC[C@@H]1Nc1cncc(-c2cnn3ccccc23)n1 [Example 66, N-[(3S,4S)-4-fluoropyrrolidin-3-yl]-6-(pyrazolo[1,5-a]pyridin-3-yl)pyrazin-2-amine] | 12.7 nM | 344 nM |  |
| FC[C@@H]1C[C@@H](Nc2cncc(-c3cnc4cc(C(F)(F)F)ccn34)n2)CN1 [Example 78, N-[(3R,5S)-5-(fluoromethyl)pyrrolidin-3-yl]-6-[7-(trifluoromethyl)imidazo[1,2-a]pyridin-3-yl]pyrazin-2-amine] | 37.1 nM | 3560 nM |  |
| FC[C@@H]1C[C@@H](Nc2cncc(-c3cnn4cc(Cl)ccc34)n2)CN1 [Example 79, 6-(6-chloropyrazolo[1,5-a]pyridin-3-yl)-N-[(3R,5S)-5-(fluoromethyl)pyrrolidin-3-yl]pyrazin-2-amine] | 5.68 nM | 184 nM |  |
| FC(F)[C@@H]1C[C@@H](Nc2cncc(-c3cnc4cc(C(F)(F)F)ccn34)n2)CN1 [Example 89, N-[(3R,5S)-5-(difluoromethyl)pyrrolidin-3-yl]-6-[7-(trifluoromethyl)imidazo[1,2-a]pyridin-3-yl]pyrazin-2-amine] | 261 nM | ≥ 10000 nM |  |
| Fc1ccc2ncc(-c3cncc(N[C@@H]4CCNC4)n3)n2c1 [Example 91, 6-(6-fluoroimidazo[1,2-a]pyridin-3-yl)-N-[(3R)-pyrrolidin-3-yl]pyrazin-2-amine] | 18.7 nM | 497 nM |  |

More lines, now with the values ahead:

| Ki (CHK1 (kinase domain)) | EC50 (HeLa cells; Homo sapiens, HeLa) | EC50 (HeLa cells) | SMILES |
| --- | --- | --- | --- |
| 6.69 nM | 64.6 nM |  | CC(C)c1ccc2ncc(-c3cncc(N[C@@H]4CCCNC4)n3)n2c1 [Example 43, 6-(6-Isopropylimidazo[1,2-a]pyridin-3-yl)-N-[(3R)-piperidin-3-yl]pyrazin-2-amine] |
| 24.6 nM | 52.2 nM |  | CC1(COc2ccc3c(c2)ncn3-c2cncc(N[C@@H]3CCCNC3)n2)COC1 [Example 47, 6-{5-[(3-Methyloxetan-3-yl)methoxy]-1H-benzimidazol1-yl}-N-[(3R)-piperidin-3-yl]pyrazin-2-amine] |
| 11.7 nM | 142 nM |  | c1cn2c(-c3cncc(N[C@@H]4CCNC4)n3)cnc2s1 [Example 49, 6-Imidazo[2,1-b][1,3]thiazol-5-yl-N-[(3R)-pyrrolidin-3-yl]pyrazin-2-amine] |
| 17.4 nM | 148 nM |  | Cc1ccc2ncc(-c3cncc(N[C@@H]4CCNC4)n3)n2c1 [Example 50, 6-(6-Methylimidazo[1,2-a]pyridin-3-yl)-N-[(3R)-pyrrolidin-3-yl]pyrazin-2-amine] |
| 9.6 nM | 95.6 nM |  | Cc1ccn2c(-c3cncc(N[C@@H]4CCNC4)n3)cnc2c1 [Example 51, 6-(7-Methylimidazo[1,2-a]pyridin-3-yl)-N-[(3R)-pyrrolidin-3-yl]pyrazin-2-amine] |
| 9.55 nM | 72.9 nM |  | COc1ccn2c(-c3cncc(N[C@@H]4CCNC4)n3)cnc2c1 [Example 52, 6-(7-Methoxyimidazo[1,2-a]pyridin-3-yl)-N-[(3R)-pyrrolidin-3-yl]pyrazin-2-amine] |
| 37 nM | 459 nM |  | FC(F)(F)c1ccn2c(-c3cncc(N[C@@H]4CCNC4)n3)cnc2c1 [Example 53, N-[(3R)-pyrrolidin-3-yl]-6-[7-(trifluoromethyl)imidazo[1,2-a]pyridin-3-yl]pyrazin-2-amine] |
| 23 nM | 229 nM |  | COc1ccc2ncc(-c3cncc(N[C@@H]4CCNC4)n3)n2c1 [Example 55, 6-(6-Methoxyimidazo[1,2-a]pyridin-3-yl)-N-[(3R)-pyrrolidin-3-yl]pyrazin-2-amine] |
| 3 nM | 9.09 nM |  | Cc1cn2c(-c3cncc(N[C@@H]4CCCNC4)n3)cnc2s1 [Example 59, 6-(2-Methylimidazo[2,1-b][1,3]thiazol-5-yl)-N-[(3R)-piperidin-3-yl]pyrazin-2-amine] |
| 1000 nM | 8320 nM |  | c1cnn2c(-c3cncc(N[C@@H]4CCCNC4)n3)cnc2c1 [Example 60, 6-Imidazo[1,2-b]pyridazin-3-yl-N-[(3R)-piperidin-3-yl]pyrazin-2-amine] |
| 80 nM | 507 nM |  | FC[C@@H]1C[C@@H](Nc2cncc(-c3cnc4ccccn34)n2)CN1 [Example 67, N-[(3R,5S)-5-(fluoromethyl)pyrrolidin-3-yl]-6-imidazo[1,2-a]pyridin-3-ylpyrazin-2-amine] |
| 90.7 nM | ≥ 10000 nM |  | C[C@@H]1CC[C@@H](Nc2cncc(-c3cnc4ccc(F)cn34)n2)CN1 [Example 88, 6-(6-fluoroimidazo[1,2-a]pyridin-3-yl)-N-[(3R,6R)-6-methylpiperidin-3-yl]pyrazin-2-amine] |
| 70.5 nM | ≥ 10000 nM |  | Fc1ccc2ncc(-c3cncc(N[C@H]4CNC[C@H]4F)n3)n2c1 [Example 90, 6-(6-fluoroimidazo[1,2-a]pyridin-3-yl)-N-[(3S,4R)-4-fluoropyrrolidin-3-yl]pyrazin-2-amine] |
| 87.5 nM | ≥ 10000 nM |  | Fc1ccc2ncc(-c3cncc(N[C@H]4CNC[C@@H]4F)n3)n2c1 [Example 92, 6-(6-fluoroimidazo[1,2-a]pyridin-3-yl)-N-[(3S,4S)-4-fluoropyrrolidin-3-yl]pyrazin-2-amine] |
| 89 nM | 3330 nM |  | C[C@H]1CC[C@@H](Nc2cncc(-c3cnc4ccc(F)cn34)n2)CN1 [Example 93, 6-(6-fluoroimidazo[1,2-a]pyridin-3-yl)-N-[(3R,6S)-6-methylpiperidin-3-yl]pyrazin-2-amine] |
| 20.6 nM |  | 370 nM | C[C@H]1NCCC[C@H]1Nc1cncc(-c2cnc3ccc(F)cn23)n1 [Example 94, 6-(6-fluoroimidazo[1,2-a]pyridin-3-yl)-N-[(2R,3R)-2-methylpiperidin-3-yl]pyrazin-2-amine] |
